Assay results as given in ChEMBL document CHEMBL2401664, “De novo tyrosinase inhibitor: 4-(6,7-dihydro-5H-indeno[5,6-d]thiazol-2-yl)benzene-1,3-diol (MHY1556)” (Bioorg Med Chem Lett, 2013).

Assays:
B16-F10 [1] = assay: Inhibition of alphaMSH-induced melanin production in mouse B16F10 cells at 0.1 uM after 48 hrs by melanin content assay (reference value: 163.78 %); assay type: functional; details: B16-F10, 48 h
[2] = target: T1, Tyrosinase (Agaricus bisporus) (UniProt O42713); assay: Inhibition of mushroom tyrosinase using L-tyrosine as substrate assessed as amount of dopachrome produced at 2 uM after 30 mins by spectrophotometry
T1 sequence (whole entry): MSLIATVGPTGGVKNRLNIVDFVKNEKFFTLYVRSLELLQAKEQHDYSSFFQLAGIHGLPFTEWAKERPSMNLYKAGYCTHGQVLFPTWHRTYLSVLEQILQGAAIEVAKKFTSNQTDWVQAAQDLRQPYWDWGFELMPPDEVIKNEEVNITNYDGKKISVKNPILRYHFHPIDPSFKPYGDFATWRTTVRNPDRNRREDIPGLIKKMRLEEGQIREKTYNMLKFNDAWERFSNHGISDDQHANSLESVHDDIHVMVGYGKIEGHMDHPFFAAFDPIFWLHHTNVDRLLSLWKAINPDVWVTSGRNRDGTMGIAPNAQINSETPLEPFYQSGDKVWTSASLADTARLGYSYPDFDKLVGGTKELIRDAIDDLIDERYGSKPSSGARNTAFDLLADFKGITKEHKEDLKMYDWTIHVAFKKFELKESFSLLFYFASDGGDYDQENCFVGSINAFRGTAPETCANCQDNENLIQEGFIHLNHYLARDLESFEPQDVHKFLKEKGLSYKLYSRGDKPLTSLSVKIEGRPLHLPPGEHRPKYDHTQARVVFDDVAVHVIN

[3] = target: T1, Tyrosinase (Agaricus bisporus); assay: Inhibition of mushroom tyrosinase using L-tyrosine as substrate assessed as amount of dopachrome produced at 1 uM after 30 mins by spectrophotometry
[4] = Cytotoxicity against mouse B16F10 cells assessed as cell viability at 10 uM after 48 hrs by MTT assay; assay type: cell-based, B16-F10; details: read-out: Activity
[5] = target: T1, Tyrosinase (Agaricus bisporus); assay: Inhibition of mushroom tyrosinase using L-tyrosine as substrate assessed as amount of dopachrome produced at 0.8 uM after 30 mins by spectrophotometry
[6] = target: T2, Tyrosinase (Mus musculus) (UniProt P11344); assay: Inhibition of tyrosinase in mouse B16F10 cells assessed as L-DOPA oxidation after 24 hrs by ELISA; assay type: cell-based; details: B16-F10
T2 sequence (whole entry): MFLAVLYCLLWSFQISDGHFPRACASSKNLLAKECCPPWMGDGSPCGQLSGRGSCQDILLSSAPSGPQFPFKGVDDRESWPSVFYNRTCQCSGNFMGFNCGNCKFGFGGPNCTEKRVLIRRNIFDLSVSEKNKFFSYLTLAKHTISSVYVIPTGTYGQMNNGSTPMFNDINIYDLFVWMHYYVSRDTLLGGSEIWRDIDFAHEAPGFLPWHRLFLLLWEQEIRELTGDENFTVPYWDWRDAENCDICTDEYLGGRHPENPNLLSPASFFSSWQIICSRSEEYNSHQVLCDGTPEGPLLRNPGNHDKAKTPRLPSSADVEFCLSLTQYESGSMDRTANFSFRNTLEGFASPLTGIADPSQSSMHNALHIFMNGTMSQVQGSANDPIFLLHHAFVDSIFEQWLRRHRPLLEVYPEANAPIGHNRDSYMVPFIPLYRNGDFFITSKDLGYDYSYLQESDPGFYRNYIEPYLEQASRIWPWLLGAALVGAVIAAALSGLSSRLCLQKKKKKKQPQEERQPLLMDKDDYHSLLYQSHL

[7] = Cytotoxicity against mouse B16F10 cells assessed as cell viability at 5 uM after 48 hrs by MTT assay; assay type: cell-based, B16-F10; details: read-out: Activity
B16-F10 [8] = assay: Inhibition of alphaMSH-induced melanin production in mouse B16F10 cells at 0.2 uM after 48 hrs by melanin content assay (reference value: 163.78 %); assay type: functional; details: B16-F10, 48 h
[9] = target: T1, Tyrosinase (Agaricus bisporus); assay: Inhibition of mushroom tyrosinase using L-tyrosine as substrate assessed as amount of dopachrome produced at 0.5 uM after 30 mins by spectrophotometry
[10] = Cytotoxicity against mouse B16F10 cells assessed as cell viability at 2 uM after 48 hrs by MTT assay; assay type: cell-based, B16-F10; details: read-out: Activity
[11] = Cytotoxicity against mouse B16F10 cells assessed as cell viability at 40 uM after 48 hrs by MTT assay; assay type: cell-based, B16-F10; details: read-out: Activity
[12] = target: T2, Tyrosinase (Mus musculus); assay: Inhibition of tyrosinase in mouse B16F10 cells assessed as L-DOPA oxidation at 0.1 uM after 24 hrs by ELISA (reference value: […] %); assay type: cell-based; details: B16-F10
B16-F10 [13] = assay: Inhibition of alphaMSH-induced melanin production in mouse B16F10 cells after 48 hrs by melanin content assay; assay type: functional, cell-based
[14] = Cytotoxicity against mouse B16F10 cells assessed as cell viability at 20 uM after 48 hrs by MTT assay; assay type: cell-based, B16-F10; details: read-out: Activity
Tyrosinase = target: T3, Tyrosinase (Agaricus bisporus, UniProt O42713); assay: Inhibition of mushroom tyrosinase using L-tyrosine as substrate assessed as amount of dopachrome produced after 30 mins by spectrophotometry
T3 sequence (O42713 whole entry): T1 sequence (whole entry)

[15] = target: T2, Tyrosinase (Mus musculus); assay: Inhibition of tyrosinase in mouse B16F10 cells assessed as L-DOPA oxidation at 0.2 uM after 24 hrs by ELISA (reference value: […] %); assay type: cell-based; details: B16-F10
[16] = target: T1, Tyrosinase (Agaricus bisporus); assay: Inhibition of mushroom tyrosinase using L-tyrosine as substrate assessed as amount of dopachrome produced at 0.1 uM after 30 mins by spectrophotometry
B16-F10 [17] = assay: Inhibition of alphaMSH-induced melanin production in mouse B16F10 cells at 2 uM after 48 hrs by melanin content assay (reference value: 163.78 %); assay type: functional; details: B16-F10, 48 h
B16-F10 [18] = assay: Inhibition of alphaMSH-induced melanin production in mouse B16F10 cells at 0.05 uM after 48 hrs by melanin content assay (reference value: 163.78 %); assay type: functional; details: B16-F10, 48 h

**Q.** What does the source list for `Oc1ccc(-c2nc3cc4c(cc3s2)CCC4)c(O)c1`?
**A.** inhibition at 0.1 µM (B16-F10 [1]): 101%; inhibition [2]: 83.5%; inhibition [3]: 73.6%; viability at 48 h, 10 µM [4]: 98.1%; inhibition [5]: 68.3%; inhibition [6]: Dose-dependent effect; viability at 48 h, 5 µM [7]: 95%; inhibition at 0.2 µM (B16-F10 [8]): 94.5%; inhibition [9]: 56.5%; viability at 48 h, 2 µM [10]: 97.9%; viability at 48 h, 40 µM [11]: 88.4%; inhibition [12]: 133%; inhibition (B16-F10 [13]): Dose-dependent effect; viability at 48 h, 20 µM [14]: 95.6%; IC50 (Tyrosinase): 0.5 µM; inhibition [15]: 109%; inhibition [16]: 22.2%; inhibition at 2 µM (B16-F10 [17]): 88.8%; inhibition at 0.05 µM (B16-F10 [18]): 121%
